The record followed here is US5002952A, “Readily absorbed pharmaceutical composition” (priority 1986, dated 1991).

For this data set, the system named is L-1210 leukemia cells. Description: Antitumour activities (survival of BDF1 mice inoculated intraperitoneally with L-1210 leukemia cells, oral test drug).

Procedure: To BDF1 mice (male, 20-22 g), L-1210 leukemia cells were intraperitoneally inoculated in an amount of 1×10^6 cells/mouse. One day later and 4 days later, a test drug was orally administered. […] Therefore, in this test, Compound No. 3, and a 10 w/v% HCO60 solution were mixed, and pulverized in a wet system to obtain a liquid suspension, and the liquid suspension was administered to each mouse in an amount of 0.5 ml.
The activity was evaluated by a survival rate [T/C (%)]as compared with a control group to which a physiological saline was administered, and T/C values are shown in Table 2.

Consider `O=C(NC(=O)c1ccccc1[N+](=O)[O-])Nc1ccc(Oc2ncc(Br)cn2)c(Cl)c1` [Compound No. 3], for which, for the setting “high dose region, composition wet pulverized with HCO60”, the “toxicity (T/C)” value is recorded as “less than 100%”. For the same compound, the “antitumour activity (in words)” value was “no substantial antitumour activity was observed” (wet pulverized in the absence of HCO60, same dose) and “adequate antitumour activity” (wet pulverized together with the specific substance (HCO60)).
